Results reported in publication PMC4111571 (Pharmaceutical research, 2012).

Test: Caco-2 cell monolayer bidirectional transport study
Format: in vitro ADME
Settings: human, Caco-2, pH 7.4

SMILES: CC(C)NCC(O)COc1cccc2ccccc12 (stereo not drawn) [Propranolol]
- Papp A→B at 2 h, 100 µM: 41.6 ± 2.4 ×10⁻⁶ cm/s
- Papp B→A at 2 h, 100 µM: 21.3 ± 0.7 ×10⁻⁶ cm/s
- efflux ratio at 2 h, 100 µM: 0.51
